Source: paper PMC9220805, “The 26S Proteasome Switches between ATP-Dependent and -Independent Mechanisms in Response to Substrate Ubiquitination” (Biomolecules, 2022)

Test system: T1, 26S proteasome (WT proteasome)
T1 construct: gene RPT1; native 26S holoenzyme (19S + 20S) purified by 3xFLAG-tagged Rpn11; with Ubiquitin carboxyl-terminal hydrolase RPN11
Assay: SDS-PAGE fluorescence degradation assay of Cy5-labelled ubiquitinated substrate
Type: biochemical, Saccharomyces cerevisiae
Settings: 1 mM ATPγS in place of ATP regeneration system; 100 nM proteasome, 20 nM substrate, 5 mM MgCl2, pH 7.5, 30 °C; nonhydrolyzable ATP analog

## Nc1ncnc2c1ncn2[C@@H]1O[C@H](COP(=O)(O)OP(=O)(O)OP(O)(O)=S)[C@@H](O)[C@H]1O [ATPγS]
  SDS-PAGE fluorescence degradation assay of Cy5-labelled ubiquitinated substrate: ATPγS considerably slowed degradation of the ubiquitinated-Rpn4-containing substrate
